The test has as its target IRAK4 (Homo sapiens (Human), UniProt Q9NWZ3). The test can be described thus: In vitro IRAK4 phosphorylation activity assay. As to conditions: [γ-33P]-ATP, myelin basic protein substrate, 40 minutes at room temperature; categories. In kind it is biochemical. In short, it runs like this: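 Radiometric filter-binding assay, no compound–kinase preincubation; 8 mM MOPS pH 7.0, 0.2 mM EDTA, 10 mM Mg acetate, 0.33 mg/mL myelin basic protein substrate, [γ-33P]-ATP. Reaction 40 min at room temperature, stopped with phosphoric acid, scintillation counting; IC50 reported in categories.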
IRAK4, sequence (Q9NWZ3 whole entry): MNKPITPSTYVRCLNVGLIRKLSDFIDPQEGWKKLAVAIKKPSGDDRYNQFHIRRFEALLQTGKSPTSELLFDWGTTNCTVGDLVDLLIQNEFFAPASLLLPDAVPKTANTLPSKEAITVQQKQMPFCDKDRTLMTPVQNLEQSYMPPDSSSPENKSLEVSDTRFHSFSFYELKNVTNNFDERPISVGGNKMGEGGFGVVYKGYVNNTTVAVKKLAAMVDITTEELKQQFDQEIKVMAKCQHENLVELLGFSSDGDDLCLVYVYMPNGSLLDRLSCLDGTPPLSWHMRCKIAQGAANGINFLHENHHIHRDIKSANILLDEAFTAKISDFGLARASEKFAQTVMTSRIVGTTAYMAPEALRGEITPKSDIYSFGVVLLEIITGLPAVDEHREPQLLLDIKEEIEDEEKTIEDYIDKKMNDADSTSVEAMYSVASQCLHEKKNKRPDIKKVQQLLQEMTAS
As for `CN1CCN(C(=O)CCCCCc2cn(-c3ccccc3)c(NC(=O)c3cccc(-c4ccc5[nH]ncc5c4)c3)n2)CC1` [Example 239, 3-(1H-indazol-5-yl)-N-(4-(6-(4-methylpiperazin-1-yl)-6-oxohexyl)-1-phenyl-1H-imidazol-2-yl)benzamide], the IC50 is less than 50 nM.

As for `O=C(Nc1nc(CCCCCC(=O)N2CCCC2)cn1-c1ccccc1)c1cccc(-c2ccc3[nH]ncc3c2)c1` [Example 240, 3-(1H-indazol-5-yl)-N-(4-(6-oxo-6-(pyrrolidin-1-yl)hexyl)-1-phenyl-1H-imidazol-2-yl)benzamide], the IC50 is less than 50 nM.

As to `O=C(Nc1nc(CCCCCC(=O)N2CCCCCC2)cn1-c1ccccc1)c1cccc(-c2ccc3[nH]ncc3c2)c1` [Example 241, N-(4-(6-(azepan-1-yl)-6-oxohexyl)-1-phenyl-1H-imidazol-2-yl)-3-(1H-indazol-5-yl)benzamide], the IC50 was less than 50 nM.

`O=C(Nc1nc(CCCCCC(=O)N2CCCCC2)cn1-c1ccccc1)c1cccc(-c2ccc3[nH]nnc3c2)c1` [Example 242, 3-(1H-benzo[d][1,2,3]triazol-5-yl)-N-(4-(6-oxo-6-(piperidin-1-yl)hexyl)-1-phenyl-1H-imidazol-2-yl)benzamide] yielded an IC50 of less than 50 nM.

For `CNC(=O)Cc1cn(-c2ccccc2)c(NC(=O)c2cccc(-c3ccc4[nH]ncc4c3)c2)n1` [Example 243, 3-(1H-indazol-5-yl)-N-(4-(2-(methylamino)-2-oxoethyl)-1-phenyl-1H-imidazol-2-yl)benzamide], the IC50 lay in the range of 50 to 100 nM.

In turn, `CNC(=O)CCCc1cn(-c2ccccc2)c(NC(=O)c2cccc(-c3ccc4[nH]ncc4c3)c2)n1` [Example 244, 3-(1H-indazol-5-yl)-N-(4-(4-(methylamino)-4-oxobutyl)-1-phenyl-1H-imidazol-2-yl)benzamide] yielded an IC50 of less than 50 nM.

Molecule `O=C(CCCc1cn(-c2ccccc2)c(NC(=O)c2cccc(-c3ccc4[nH]ncc4c3)c2)n1)NC1CC1` [Example 245, N-(4-(4-(cyclopropylamino)-4-oxobutyl)-1-phenyl-1H-imidazol-2-yl)-3-(1H-indazol-5-yl)benzamide] registered an IC50 of less than 50 nM.

`O=C(Nc1nc(CCCC(=O)N2CCCCC2)cn1-c1ccccc1)c1cccc(-c2ccc3[nH]ncc3c2)c1` [Example 246, 3-(1H-indazol-5-yl)-N-(4-(4-oxo-4-(piperidin-1-yl)butyl)-1-phenyl-1H-imidazol-2-yl)benzamide]: the concentration for half-maximal inhibition (IC50) was less than 50 nM.

Turning to `CN1CCN(C(=O)CCCc2cn(-c3ccccc3)c(NC(=O)c3cccc(-c4ccc5[nH]ncc5c4)c3)n2)CC1` [Example 247, 3-(1H-indazol-5-yl)-N-(4-(4-(4-methylpiperazin-1-yl)-4-oxobutyl)-1-phenyl-1H-imidazol-2-yl)benzamide], the IC50 was less than 50 nM.

On to `O=C(CCCc1cn(-c2ccccc2)c(NC(=O)c2cccc(-c3cccc4cn[nH]c34)c2)n1)NC1CC1` [Example 248, N-(4-(4-(cyclopropylamino)-4-oxobutyl)-1-phenyl-1H-imidazol-2-yl)-3-(1H-indazol-7-yl)benzamide], for which the IC50 was more than 100 nM.

As to `O=C(CCCc1cn(-c2ccccc2)c(NC(=O)c2cccc(-c3cccc4[nH]ncc34)c2)n1)NC1CC1` [Example 249, N-(4-(4-(cyclopropylamino)-4-oxobutyl)-1-phenyl-1H-imidazol-2-yl)-3-(1H-indazol-4-yl)benzamide], the IC50 is less than 50 nM.

As for `O=C(CCCc1cn(-c2ccccc2)c(NC(=O)c2cccc(-c3ccc4cn[nH]c4c3)c2)n1)NC1CC1` [Example 250, N-(4-(4-(cyclopropylamino)-4-oxobutyl)-1-phenyl-1H-imidazol-2-yl)-3-(1H-indazol-6-yl)benzamide], the IC50 is less than 50 nM.

For `Cn1ncc2cc(-c3cccc(C(=O)Nc4nc(CCCCCC(=O)N5CCCCC5)cn4-c4ccccc4)c3)ccc21` [Example 251, 3-(1-methyl-1H-indazol-5-yl)-N-(4-(6-oxo-6-(piperidin-1-yl)hexyl)-1-phenyl-1H-imidazol-2-yl)benzamide], the IC50 is more than 100 nM.

For the molecule `O=C(Nc1nc(CCCCCCN2CCCCC2)cn1-c1ccccc1)c1cccc(-c2ccc3[nH]ncc3c2)c1` [Example 252, 3-(1H-indazol-5-yl)-N-(1-phenyl-4-(6-(piperidin-1-yl)hexyl)-1H-imidazol-2-yl)benzamide], the IC50 was less than 50 nM.

Molecule `O=C(Nc1nc(CCCCCCN2CCCCC2)cn1-c1ccccc1)c1cccc(-c2ccc3[nH]ccc3c2)c1` [Example 253, 3-(1H-indol-5-yl)-N-(1-phenyl-4-(6-(piperidin-1-yl)hexyl)-1H-imidazol-2-yl)benzamide] came in with an IC50 of 50 to 100 nM.

For the molecule `O=C(Nc1nc(CCCCCCN2CCOCC2)cn1-c1ccccc1)c1cccc(-c2ccc3[nH]ncc3c2)c1` [Example 254, 3-(1H-indazol-5-yl)-N-(4-(6-morpholinohexyl)-1-phenyl-1H-imidazol-2-yl)benzamide], the IC50 was less than 50 nM.

As to `O=C(Nc1nc(CCCCCCN2CCCCC2)cn1-c1ccccc1)c1cccc(-c2cccc3[nH]ncc23)c1` [Example 255, 3-(1H-indazol-4-yl)-N-(1-phenyl-4-(6-(piperidin-1-yl)hexyl)-1H-imidazol-2-yl)benzamide], the IC50 was less than 50 nM.

Take `O=C(Nc1nc(CCCCN2CCCCC2)cn1-c1ccccc1)c1cccc(-c2ccc3[nH]ncc3c2)c1` [Example 256, 3-(1H-indazol-5-yl)-N-(1-phenyl-4-(4-(piperidin-1-yl)butyl)-1H-imidazol-2-yl)benzamide]: the IC50 was less than 50 nM.

Regarding `O=C(Nc1nc(CCCCN2CCCCC2)cn1-c1ccccc1)c1cccc(-c2cccc3[nH]ncc23)c1` [Example 257, 3-(1H-indazol-4-yl)-N-(1-phenyl-4-(4-(piperidin-1-yl)butyl)-1H-imidazol-2-yl)benzamide], the IC50 was less than 50 nM.

In the case of `O=C(Nc1nc(CCCCN2CCCC2=O)cn1-c1ccccc1)c1cccc(-c2ccc3[nH]ncc3c2)c1` [Example 258, 3-(1H-indazol-5-yl)-N-(4-(4-(2-oxopyrrolidin-1-yl)butyl)-1-phenyl-1H-imidazol-2-yl)benzamide], the IC50 was less than 50 nM.

In turn, `O=C(Nc1nc(CCCCCCN2CCCC2=O)cn1-c1ccccc1)c1cccc(-c2ccc3[nH]ncc3c2)c1` [Example 259, 3-(1H-indazol-5-yl)-N-(4-(6-(2-oxopyrrolidin-1-yl)hexyl)-1-phenyl-1H-imidazol-2-yl)benzamide] had a half-maximal inhibitory concentration (IC50) of less than 50 nM.

For the molecule `O=C(Nc1nc(CCCCCCN2CCCCC2=O)cn1-c1ccccc1)c1cccc(-c2ccc3[nH]ncc3c2)c1` [Example 260, 3-(1H-indazol-5-yl)-N-(4-(6-(2-oxopiperidin-1-yl)hexyl)-1-phenyl-1H-imidazol-2-yl)benzamide], the IC50 is less than 50 nM.

`O=C(Nc1nc(CCCCNC(=O)C2CC2)cn1-c1ccccc1)c1cccc(-c2ccc3[nH]ncc3c2)c1` [Example 261, N-(4-(4-(cyclopropanecarboxamido)butyl)-1-phenyl-1H-imidazol-2-yl)-3-(1H-indazol-5-yl)benzamide] yielded an IC50 of less than 50 nM.

For `O=C(Nc1nc(CCCCCCNC(=O)C2CC2)cn1-c1ccccc1)c1cccc(-c2ccc3[nH]ncc3c2)c1` [Example 262, N-(4-(6-(cyclopropanecarboxamido)hexyl)-1-phenyl-1H-imidazol-2-yl)-3-(1H-indazol-5-yl)benzamide], the IC50 was less than 50 nM.

One may read the IC50 as the concentration that gives 50% inhibition.

The values are drawn from patent US12534452B2, “N-(1H-imidazol-2-yl)benzamide compound and pharmaceutical composition comprising the same as active ingredient” (KAINOS MEDICINE, INC., priority 2019, dated 2026).
